Reference: patent US20050159478A1, “Compositions containing d-tocopherol compound polybasic acid partial esters” (priority 2003, published 2005)
“And” between values parts separate entries of the source, which are not always exact repeats. Identical values can stand only once.

Key:
[1] = Oscillatory rheology, softening point at tan(δ) = 1; type: physicochemical; settings: for Rheology (oscillatory) @ Tan(δ) = 1 Temperature (softening point): heating rate 5° C./min, oscillation stress 1.0 Pa, 1.0 Hz
Procedure: Rheology measurements are conducted with TA Instruments Rheolyst AR-1000N rheometer. Experiments are conducted with the parallel plate geometry in a nitrogen atmosphere. The experiments use an oscillation stress of 1.0 Pa at a frequency of 1.0 Hz. The temperature range of the experiments is 40 to 210° C. at a heating rate of 5.0° C./min. Per analogy to rigid sphere or polymers, for TCS samples below the melting point, change in the pseudo G′ and G″ moduli″ is used as an indication of the softening of the sample. The cross-over point corresponds to the point where the ratio of the […] or tan (δ) is equal to one. The temperature at which tan (δ) is equal to one is considered as the softening point for the solid TCS samples. In addition, the second derivative of the loss modulus vs temperature was calculated. A maximum or minimum in the second derivative indicates a curvature or inflexion in the G″ vs T. This can also be taken as indicator of a change in the state of the samples (softening or melting depending on the temperature).
Softening points of these tocopherol succinate samples were identified using oscillatory rheology measurements. The temperature at which tan(δ) is equal to one, i.e., cross-over point (or the point where the samples are less rigid) is considered as their softening point. We call the moduli “pseudo loss and storage moduli”, since below the melting point, the powder cannot in reality be viscoelastic.

[2] = Differential Scanning Calorimetry of tocopherol calcium succinate samples; type: physicochemical; settings: heating rate 5° C./min; several thermal transitions per sample
Procedure: DSC measurements are conducted with a Perkin Elmer Pyris 1 Differential Scanning Calorimeter. Experiments are conducted between 40° C. and 250° C. at heating/cooling rates of 5.0 and 10.0° C./min. During the experiments, the samples are enclosed in an air tight aluminum pan. The aluminum pan is in a nitrogen purge at 30 psi.

With `Cc1c(C)c2c(c(C)c1OC(=O)CCC(=O)[O-])CC[C@@](C)(CCC[C@H](C)CCC[C@H](C)CCCC(C)C)O2.Cc1c(C)c2c(c(C)c1OC(=O)CCC(=O)[O-])CC[C@@](C)(CCC[C@H](C)CCC[C@H](C)CCCC(C)C)O2.[Ca+2]` (racemic) [dl-tocopherol calcium succinate, reference compound] the “Rheology (oscillatory) @ Tan(δ) = 1 Temperature (softening point)” value [1] was 147 °C.

With `Cc1c(C)c2c(c(C)c1OC(=O)CCC(=O)[O-])CC[C@@](C)(CCC[C@H](C)CCC[C@H](C)CCCC(C)C)O2.Cc1c(C)c2c(c(C)c1OC(=O)CCC(=O)[O-])CC[C@@](C)(CCC[C@H](C)CCC[C@H](C)CCCC(C)C)O2.[Ca+2]` [d-α-tocopherol calcium succinate] the “softening point in comparison to synthetic dl-tocopherol calcium succinate” value ([1]; compared with dl-tocopherol calcium succinate) was “significantly improved, i.e., increased, softening point” and the “Rheology (oscillatory) @ Tan(δ) = 1 Temperature (softening point)” value [1] was 151 °C and 153 °C.

For `Cc1c(C)c2c(c(C)c1OC(=O)CCC(=O)O)CC[C@@](C)(CCC[C@H](C)CCC[C@H](C)CCCC(C)C)O2` [d-α-tocopherol succinic acid], the “Rheology (oscillatory) @ Tan(δ) = 1 Temperature (softening point)” value [1] was 74 °C, the “DSC Enthalpy” value [2] was 80.00 J/g and the “DSC Onset” value [2] was 74.5 °C.
